Results published in patent US8921376B2, “Pyrrolopyridines useful as inhibitors of protein kinase” (Vertex Pharmaceuticals Incorporated, priority 2005, dated 2014).
pKi: −log10 of the molar value.

Key:
Assay type in all cases: biochemical
Conditions in all cases: Table 6; enzyme inhibition data (Ki)
[1] = molecular target: JAK2 (Homo sapiens, UniProt O60674); assay: JAK2 inhibition assay (as Example 3 with JAK-2 enzyme)
Summary of the method: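 In HEPES pH 7.4 buffer with 10 mM MgCl2, 1 mM DTT, 25 mM NaCl and 0.01% BSA, JAK2 enzyme phosphorylated poly(Glu)4Tyr (final 15 μM) using 33P-ATP (final 12 μM) for 20 min at room temperature (25 °C). Reactions stopped with TCA; incorporated 33P measured by scintillation after filtration.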

[2] = molecular target: ROCK I (Homo sapiens, UniProt Q13464); assay: ROCK-I inhibition assay (radioactive enzyme assay, MBP substrate)
Sequence of ROCK I (Q13464 whole entry): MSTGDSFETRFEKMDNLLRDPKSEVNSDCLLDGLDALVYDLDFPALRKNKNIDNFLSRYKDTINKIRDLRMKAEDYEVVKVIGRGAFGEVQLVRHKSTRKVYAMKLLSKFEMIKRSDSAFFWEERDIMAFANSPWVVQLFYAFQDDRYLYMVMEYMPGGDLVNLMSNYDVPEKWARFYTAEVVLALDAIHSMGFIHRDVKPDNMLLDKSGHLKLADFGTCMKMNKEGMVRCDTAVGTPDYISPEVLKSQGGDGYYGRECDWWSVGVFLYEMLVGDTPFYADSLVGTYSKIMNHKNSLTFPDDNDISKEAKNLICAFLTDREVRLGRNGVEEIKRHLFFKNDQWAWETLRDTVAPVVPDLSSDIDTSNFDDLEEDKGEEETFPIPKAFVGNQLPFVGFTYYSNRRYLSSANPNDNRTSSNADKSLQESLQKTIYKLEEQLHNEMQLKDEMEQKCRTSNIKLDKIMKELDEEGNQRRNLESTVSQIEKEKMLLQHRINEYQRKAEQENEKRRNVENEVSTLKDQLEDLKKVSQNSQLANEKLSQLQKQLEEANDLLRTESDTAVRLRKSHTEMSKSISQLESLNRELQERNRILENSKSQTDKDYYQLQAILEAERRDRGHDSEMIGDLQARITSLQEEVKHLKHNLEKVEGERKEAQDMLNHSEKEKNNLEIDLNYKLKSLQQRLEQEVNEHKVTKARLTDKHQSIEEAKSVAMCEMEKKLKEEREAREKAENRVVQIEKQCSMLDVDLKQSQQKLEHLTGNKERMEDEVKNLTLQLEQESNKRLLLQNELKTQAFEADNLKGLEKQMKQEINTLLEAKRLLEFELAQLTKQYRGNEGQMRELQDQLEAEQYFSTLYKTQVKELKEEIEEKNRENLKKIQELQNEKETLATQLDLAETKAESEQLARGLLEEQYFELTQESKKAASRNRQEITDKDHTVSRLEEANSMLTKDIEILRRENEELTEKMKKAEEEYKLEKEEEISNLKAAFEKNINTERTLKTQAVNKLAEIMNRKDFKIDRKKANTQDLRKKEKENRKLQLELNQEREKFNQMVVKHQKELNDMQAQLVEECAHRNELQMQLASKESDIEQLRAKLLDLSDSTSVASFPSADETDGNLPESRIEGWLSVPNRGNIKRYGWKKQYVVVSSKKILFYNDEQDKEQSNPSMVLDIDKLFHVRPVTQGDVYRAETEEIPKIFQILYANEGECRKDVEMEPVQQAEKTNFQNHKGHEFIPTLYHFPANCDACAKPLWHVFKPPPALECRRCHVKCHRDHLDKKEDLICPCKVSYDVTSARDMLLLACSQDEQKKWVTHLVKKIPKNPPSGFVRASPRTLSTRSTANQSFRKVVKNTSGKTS
Summary of the method: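 Human ROCK at 5 nM phosphorylated 27 μM myelin basic protein with 13 μM [γ-33P]ATP (final) in HEPES pH 7.5, MgCl2, NaCl, DTT and 1.5% DMSO. Reactions ran 2 h at room temperature before TCA quench and filter-plate scintillation counting. After background subtraction, data were fit to give Ki(app).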

[3] = molecular target: T1, JAK3 (Homo sapiens, UniProt P52333); assay: JAK3 inhibition assay (33P incorporation into poly(Glu)4Tyr)
T1 sequence (P52333 1-1124): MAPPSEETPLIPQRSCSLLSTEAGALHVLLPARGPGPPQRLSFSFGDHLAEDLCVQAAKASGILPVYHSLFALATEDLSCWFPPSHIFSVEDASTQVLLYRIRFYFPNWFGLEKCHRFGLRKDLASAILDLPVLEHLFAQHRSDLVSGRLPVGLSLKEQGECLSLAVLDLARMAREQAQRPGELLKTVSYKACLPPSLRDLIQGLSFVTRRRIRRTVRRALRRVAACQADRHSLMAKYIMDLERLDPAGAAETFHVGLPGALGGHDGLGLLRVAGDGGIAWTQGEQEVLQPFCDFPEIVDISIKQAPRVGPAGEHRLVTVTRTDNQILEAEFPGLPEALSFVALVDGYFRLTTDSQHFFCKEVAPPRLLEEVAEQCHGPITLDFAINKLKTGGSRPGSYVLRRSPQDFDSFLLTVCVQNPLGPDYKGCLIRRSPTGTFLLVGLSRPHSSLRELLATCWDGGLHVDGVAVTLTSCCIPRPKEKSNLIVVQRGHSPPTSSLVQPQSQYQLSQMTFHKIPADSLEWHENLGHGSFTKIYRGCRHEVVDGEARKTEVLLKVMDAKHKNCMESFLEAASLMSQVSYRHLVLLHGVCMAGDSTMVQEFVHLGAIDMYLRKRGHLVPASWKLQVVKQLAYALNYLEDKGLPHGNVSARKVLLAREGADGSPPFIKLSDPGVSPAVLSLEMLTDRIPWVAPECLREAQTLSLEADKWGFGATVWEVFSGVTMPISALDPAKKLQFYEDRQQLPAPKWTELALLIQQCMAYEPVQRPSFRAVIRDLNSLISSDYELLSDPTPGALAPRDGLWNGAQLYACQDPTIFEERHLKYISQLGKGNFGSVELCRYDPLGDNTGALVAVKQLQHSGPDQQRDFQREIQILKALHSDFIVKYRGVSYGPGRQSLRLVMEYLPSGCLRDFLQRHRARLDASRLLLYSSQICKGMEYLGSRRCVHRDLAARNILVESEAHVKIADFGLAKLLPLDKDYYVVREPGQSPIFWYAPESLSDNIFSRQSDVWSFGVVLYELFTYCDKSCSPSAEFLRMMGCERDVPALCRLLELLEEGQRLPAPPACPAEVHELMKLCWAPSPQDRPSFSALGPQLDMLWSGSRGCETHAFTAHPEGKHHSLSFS
Summary of the method: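 After TCA quench and filter harvest, scintillation counting of 33P measured phosphorylation of poly(Glu)4Tyr (1 μM) by 1 nM JAK3. The 20-min, 25° C. reaction contained 5 μM ATP (200 μCi/μmole) in pH 7.4 HEPES buffer with 10 mM MgCl2.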

Sequence of JAK2 (O60674 whole entry): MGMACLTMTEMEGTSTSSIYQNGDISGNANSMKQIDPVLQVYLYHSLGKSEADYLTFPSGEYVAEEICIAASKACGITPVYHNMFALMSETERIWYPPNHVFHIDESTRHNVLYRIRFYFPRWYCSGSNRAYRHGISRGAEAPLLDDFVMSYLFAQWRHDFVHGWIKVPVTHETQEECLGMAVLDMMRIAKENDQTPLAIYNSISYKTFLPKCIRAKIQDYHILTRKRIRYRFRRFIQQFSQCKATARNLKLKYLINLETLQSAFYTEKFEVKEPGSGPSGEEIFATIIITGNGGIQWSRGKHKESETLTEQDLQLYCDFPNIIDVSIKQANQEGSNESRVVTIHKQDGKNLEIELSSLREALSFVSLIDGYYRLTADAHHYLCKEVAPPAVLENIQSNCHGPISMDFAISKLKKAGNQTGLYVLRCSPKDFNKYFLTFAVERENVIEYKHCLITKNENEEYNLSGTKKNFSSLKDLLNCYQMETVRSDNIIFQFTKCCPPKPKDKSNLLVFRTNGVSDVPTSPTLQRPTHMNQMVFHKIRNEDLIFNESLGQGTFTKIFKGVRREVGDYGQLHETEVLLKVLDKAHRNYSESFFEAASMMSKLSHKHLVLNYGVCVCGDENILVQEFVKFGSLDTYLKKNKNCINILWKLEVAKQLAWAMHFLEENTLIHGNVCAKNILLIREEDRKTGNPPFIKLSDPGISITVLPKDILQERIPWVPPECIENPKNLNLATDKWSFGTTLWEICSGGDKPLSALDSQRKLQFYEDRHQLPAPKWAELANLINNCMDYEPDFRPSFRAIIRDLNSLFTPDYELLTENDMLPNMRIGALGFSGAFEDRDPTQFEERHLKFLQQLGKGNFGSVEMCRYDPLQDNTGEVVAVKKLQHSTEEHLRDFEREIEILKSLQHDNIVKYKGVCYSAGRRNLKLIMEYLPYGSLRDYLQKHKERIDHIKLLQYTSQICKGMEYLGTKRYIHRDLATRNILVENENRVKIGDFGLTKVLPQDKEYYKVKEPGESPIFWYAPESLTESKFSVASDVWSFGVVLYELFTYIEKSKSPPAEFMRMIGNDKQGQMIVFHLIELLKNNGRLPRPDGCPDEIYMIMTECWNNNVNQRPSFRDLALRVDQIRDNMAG

Row | pKi [1] | pKi [2] | pKi [3] | Compound
1 | > 6.30 | < 5.40 | > 6.30 | CCC(=O)Nc1cccc(Nc2c(Cl)cnc3[nH]ccc23)c1 [compound 155]
2 | 5.30 to 6.30 | < 5.40 | 5.30 to 6.30 | Cc1ccc(C(N)=O)cc1Nc1c(Cl)cnc2[nH]ccc12 [compound 160]
3 | > 6.30 | < 5.40 | > 6.30 | CC(C)(C)OC(=O)N1CCC[C@@H](Nc2c(Cl)cnc3[nH]ccc23)C1 [compound 164]
4 | > 6.30 | 5.30 to 6.30 | > 6.30 | COC(=O)N1CCCC(Nc2c(Cl)cnc3[nH]ccc23)C1 (stereo not drawn) [compound 173]
5 | > 6.30 | 5.30 to 6.30 | > 6.30 | CCCOC(=O)N1CCCC(Nc2c(Cl)cnc3[nH]ccc23)C1 (stereo not drawn) [compound 174]
6 | > 6.30 | < 5.40 | > 6.30 | CCC(=O)N1CCCC(Nc2c(Cl)cnc3[nH]ccc23)C1 (stereo not drawn) [compound 175]
7 | > 6.30 | 5.30 to 6.30 | > 6.30 | O=C(CC(F)(F)F)N1CCCC(Nc2c(Cl)cnc3[nH]ccc23)C1 (stereo not drawn) [compound 186]
8 | > 6.30 | 5.30 to 6.30 | > 6.30 | O=C(CC(F)(F)F)N1CC[C@H](Nc2c(Cl)cnc3[nH]ccc23)C1 [compound 187]
9 | > 6.30 | 5.30 to 6.30 | > 6.30 | N#CCC(=O)N1CCCC(Nc2c(Cl)cnc3[nH]ccc23)C1 (stereo not drawn) [compound 188]
10 | > 6.30 | < 5.40 | 5.30 to 6.30 | O=C(CC(F)(F)F)N1CC[C@@H](Nc2c(Cl)cnc3[nH]ccc23)C1 [compound 189]
11 | > 6.30 | 5.30 to 6.30 | > 6.30 | N#CCC(=O)N1CC[C@@H](Nc2c(Cl)cnc3[nH]ccc23)C1 [compound 190]
12 | > 6.30 | < 5.40 | > 6.30 | N#CCC(=O)N1CC[C@H](Nc2c(Cl)cnc3[nH]ccc23)C1 [compound 191]
13 | 5.30 to 6.30 | < 5.40 | > 6.30 | O=C(CNc1nc(-c2ccnc3[nH]ccc23)ncc1F)NCC(F)(F)F [compound 192]
14 | 5.30 to 6.30 | < 5.40 | 5.30 to 6.30 | O=C(CCNc1nc(-c2ccnc3[nH]ccc23)ncc1F)NCC(F)(F)F [compound 193]
15 | < 5.30 | < 5.40 | < 5.30 | CC(C)(C)C(=O)Nc1ncccc1-c1ccnc2[nH]ccc12 [compound 194]
16 | < 5.30 | < 5.40 | < 5.30 | Nc1ncccc1-c1ccnc2[nH]ccc12 [compound 195]
17 | 5.30 to 6.30 | < 5.40 | 5.30 to 6.30 | O=C(CNc1nc(-c2ccnc3[nH]ccc23)nc2ccccc12)NCC(F)(F)F [compound 196]
18 | 5.30 to 6.30 | < 5.40 | 5.30 to 6.30 | O=C(CCNc1nc(-c2ccnc3[nH]ccc23)nc2ccccc12)NCC(F)(F)F [compound 197]

Second part, the molecule before the results:

Row | Compound | pKi [1] | pKi [2] | pKi [3]
19 | Clc1cnc2[nH]ccc2c1N[C@@H]1C[C@H]2CC[C@@H]1C2 [compound 150] | > 6.30 | > 6.30 | > 6.30
20 | CC(C)[C@@H]1CC[C@@H](C)C[C@H]1Nc1c(Cl)cnc2[nH]ccc12 [compound 151] | 5.30 to 6.30 | < 5.40 | 5.30 to 6.30
21 | Clc1cnc2[nH]ccc2c1N[C@@H]1CCC[C@H]1OCc1ccccc1 [compound 152] | > 6.30 | > 6.30 | > 6.30
22 | CC1CCCCC1Nc1c(Cl)cnc2[nH]ccc12 (stereo not drawn) [compound 153] | > 6.30 | 5.30 to 6.30 | > 6.30
23 | COc1ccc(OC)c(Nc2c(Cl)cnc3[nH]ccc23)c1 [compound 154] | > 6.30 | < 5.40 | > 6.30
24 | Clc1cnc2[nH]ccc2c1Nc1cccc(-c2cnco2)c1 [compound 156] | > 6.30 | < 5.40 | > 6.30
25 | Clc1cnc2[nH]ccc2c1NC1CCCN(Cc2ccccc2)C1 (stereo not drawn) [compound 157] | > 6.30 | > 6.30 | > 6.30
26 | Clc1ccccc1Nc1c(Cl)cnc2[nH]ccc12 [compound 158] | > 6.30 | 5.30 to 6.30 | > 6.30
27 | N#Cc1ccc(Cl)cc1Nc1c(Cl)cnc2[nH]ccc12 [compound 159] | > 6.30 | < 5.40 | > 6.30
28 | CC1CCCC(Nc2c(Cl)cnc3[nH]ccc23)C1 (stereo not drawn) [compound 161] | > 6.30 | > 6.30 | > 6.30
29 | CC1CC(Nc2c(Cl)cnc3[nH]ccc23)CC(C)(C)C1 (stereo not drawn) [compound 162] | > 6.30 | 5.30 to 6.30 | > 6.30
30 | N#Cc1ccc(Nc2c(Cl)cnc3[nH]ccc23)c(Cl)c1 [compound 163] | > 6.30 | < 5.40 | > 6.30
31 | C#CCOC(=O)N1CC[C@H](Nc2c(Cl)cnc3[nH]ccc23)C1 [compound 165] | > 6.30 | < 5.40 | > 6.30
32 | COC(=O)N1CC[C@H](Nc2c(Cl)cnc3[nH]ccc23)C1 [compound 166] | > 6.30 | < 5.40 | 5.30 to 6.30
33 | CCCOC(=O)N1CC[C@H](Nc2c(Cl)cnc3[nH]ccc23)C1 [compound 167] | > 6.30 | < 5.40 | > 6.30
34 | CCC(=O)N1CC[C@H](Nc2c(Cl)cnc3[nH]ccc23)C1 [compound 168] | > 6.30 | < 5.40 | 5.30 to 6.30
35 | C#CCOC(=O)N1CC[C@@H](Nc2c(Cl)cnc3[nH]ccc23)C1 [compound 169] | > 6.30 | 5.30 to 6.30 | > 6.30
36 | COC(=O)N1CC[C@@H](Nc2c(Cl)cnc3[nH]ccc23)C1 [compound 170] | > 6.30 | 5.30 to 6.30 | > 6.30
37 | CCCOC(=O)N1CC[C@@H](Nc2c(Cl)cnc3[nH]ccc23)C1 [compound 171] | > 6.30 | 5.30 to 6.30 | > 6.30
38 | C#CCOC(=O)N1CCCC(Nc2c(Cl)cnc3[nH]ccc23)C1 (stereo not drawn) [compound 172] | > 6.30 | 5.30 to 6.30 | > 6.30
39 | CCC(=O)N1CC[C@@H](Nc2c(Cl)cnc3[nH]ccc23)C1 [compound 176] | > 6.30 | 5.30 to 6.30 | > 6.30
40 | CCCS(=O)(=O)N1CCCC(Nc2c(Cl)cnc3[nH]ccc23)C1 (stereo not drawn) [compound 177] | > 6.30 | 5.30 to 6.30 | > 6.30
41 | CCCS(=O)(=O)N1CC[C@H](Nc2c(Cl)cnc3[nH]ccc23)C1 [compound 178] | > 6.30 | < 5.40 | > 6.30
42 | O=S(=O)(C1CC1)N1CC[C@H](Nc2c(Cl)cnc3[nH]ccc23)C1 [compound 179] | > 6.30 | < 5.40 | > 6.30
43 | CCCS(=O)(=O)N1CC[C@@H](Nc2c(Cl)cnc3[nH]ccc23)C1 [compound 180] | > 6.30 | < 5.40 | > 6.30
44 | O=S(=O)(C1CC1)N1CCCC(Nc2c(Cl)cnc3[nH]ccc23)C1 (stereo not drawn) [compound 181] | > 6.30 | 5.30 to 6.30 | > 6.30
45 | CS(=O)(=O)N1CCCC(Nc2c(Cl)cnc3[nH]ccc23)C1 (stereo not drawn) [compound 182] | > 6.30 | 5.30 to 6.30 | > 6.30
46 | O=S(=O)(C1CC1)N1CC[C@@H](Nc2c(Cl)cnc3[nH]ccc23)C1 [compound 183] | > 6.30 | < 5.40 | > 6.30
47 | CS(=O)(=O)N1CC[C@@H](Nc2c(Cl)cnc3[nH]ccc23)C1 [compound 184] | > 6.30 | 5.30 to 6.30 | > 6.30
48 | CS(=O)(=O)N1CC[C@H](Nc2c(Cl)cnc3[nH]ccc23)C1 [compound 185] | > 6.30 | < 5.40 | > 6.30
